Reference: US20230085307A1, “PYRIDAZINONE COMPOUND AND HERBICIDE” (NISSAN CHEMICAL CORPORATION, priority 2019, published 2023)

Tests used:
barnyard grass [1] = assay: Test Example 3: herbicidal effect by foliage application, Wagner pot (Table 18, symbol H); type: in vivo, barnyard grass (Echinochloa crus-galli); settings: amount of applied herbicide 320 g/ha
How it was run: (§1)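 Plants were sown in alluvial soil held under 0.1–0.5 cm standing water and grown 14 days in a greenhouse at 25–30 °C. An emulsifiable formulation, water-diluted to the set dose, was then sprayed onto the foliage, and effects were scored three weeks later using previously defined criteria.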

Chinese sprangletop = assay: Test Example 3: herbicidal effect by foliage application, Wagner pot (Table 18, symbol D); type: in vivo, chinese sprangletop (Leptochloa chinensis); settings: amount of applied herbicide 320 g/ha
How it was run: as §1

rice flat sedge = assay: Test Example 3: herbicidal effect by foliage application, Wagner pot (Table 18, symbol E); type: in vivo, rice flat sedge (Cyperus iria); settings: amount of applied herbicide 320 g/ha
How it was run: as §1

southern crabgrass [2] = assay: Test Example 4: herbicidal effect by soil treatment (Table 19, symbol F); type: in vivo, southern crabgrass (Digitaria ciliaris); settings: amount of applied herbicide 320 g/ha
How it was run: (§2)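 Step 1: sow seeds in sterilized diluvial soil, cover ~1.5 cm. Step 2: spray diluted emulsion onto soil surface at predetermined rate. Step 3: greenhouse, 25–30° C, three weeks. Step 4: grade effect on each plant by earlier criteria.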

green foxtail [3] = assay: Test Example 4: herbicidal effect by soil treatment (Table 19, symbol G); type: in vivo, green foxtail (Setaria viridis); settings: amount of applied herbicide 320 g/ha
How it was run: as §2

barnyard grass [4] = assay: Test Example 4: herbicidal effect by soil treatment (Table 19, symbol H); type: in vivo, barnyard grass (Echinochloa crus-galli); settings: amount of applied herbicide 320 g/ha
How it was run: as §2

wild oat [5] = assay: Test Example 4: herbicidal effect by soil treatment (Table 19, symbol I); type: in vivo, wild oat (Avena fatua); settings: amount of applied herbicide 320 g/ha
How it was run: as §2

blackgrass [6] = assay: Test Example 4: herbicidal effect by soil treatment (Table 19, symbol J); type: in vivo, blackgrass (Alopecurus myosuroides); settings: amount of applied herbicide 320 g/ha
How it was run: as §2

Italian ryegrass [7] = assay: Test Example 4: herbicidal effect by soil treatment (Table 19, symbol K); type: in vivo, Italian ryegrass (Lolium multiflorum); settings: amount of applied herbicide 320 g/ha
How it was run: as §2

windgrass [8] = assay: Test Example 4: herbicidal effect by soil treatment (Table 19, symbol L); type: in vivo, windgrass (Apera spica-venti); settings: amount of applied herbicide 320 g/ha
How it was run: as §2

velvetleaf [9] = assay: Test Example 4: herbicidal effect by soil treatment (Table 19, symbol M); type: in vivo, velvetleaf (Abutilon theophrasti); settings: amount of applied herbicide 320 g/ha
How it was run: as §2

redroot pigweed [10] = assay: Test Example 4: herbicidal effect by soil treatment (Table 19, symbol N); type: in vivo, redroot pigweed (Amaranthus retroflexus); settings: amount of applied herbicide 320 g/ha
How it was run: as §2

lambsquarters [11] = assay: Test Example 4: herbicidal effect by soil treatment (Table 19, symbol O); type: in vivo, lambsquarters (Chenopodium album); settings: amount of applied herbicide 320 g/ha
How it was run: as §2

chickweed [12] = assay: Test Example 4: herbicidal effect by soil treatment (Table 19, symbol P); type: in vivo, common chickweed (Stellaria media); settings: amount of applied herbicide 320 g/ha
How it was run: as §2

false cleavers [13] = assay: Test Example 4: herbicidal effect by soil treatment (Table 19, symbol Q); type: in vivo, false cleavers (Galium spurium); settings: amount of applied herbicide 320 g/ha
How it was run: as §2

persian speedwell [14] = assay: Test Example 4: herbicidal effect by soil treatment (Table 19, symbol R); type: in vivo, Persian speedwell (Veronica persica); settings: amount of applied herbicide 320 g/ha
How it was run: as §2

southern crabgrass [15] = assay: Test Example 5: herbicidal effect by foliage application, plastic box (Table 20, symbol F); type: in vivo, southern crabgrass (Digitaria ciliaris); settings: foliage application, 320 g/ha, evaluated three weeks after application
How it was run: (§3)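 Foliar spray test: emulsion formulation diluted in water to a set application rate, sprayed onto 14-day-old plants raised in diluvial soil at 25° C to 30° C under glass. Both herbicidal effect and crop effect rated visually three weeks later.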

green foxtail [16] = assay: Test Example 5: herbicidal effect by foliage application, plastic box (Table 20, symbol G); type: in vivo, green foxtail (Setaria viridis); settings: foliage application, 320 g/ha, evaluated three weeks after application
How it was run: as §3

barnyard grass [17] = assay: Test Example 5: herbicidal effect by foliage application, plastic box (Table 20, symbol H); type: in vivo, barnyard grass (Echinochloa crus-galli); settings: foliage application, 320 g/ha, evaluated three weeks after application
How it was run: as §3

wild oat [18] = assay: Test Example 5: herbicidal effect by foliage application, plastic box (Table 20, symbol I); type: in vivo, wild oat (Avena fatua); settings: foliage application, 320 g/ha, evaluated three weeks after application
How it was run: as §3

blackgrass [19] = assay: Test Example 5: herbicidal effect by foliage application, plastic box (Table 20, symbol J); type: in vivo, blackgrass (Alopecurus myosuroides); settings: foliage application, 320 g/ha, evaluated three weeks after application
How it was run: as §3

Italian ryegrass [20] = assay: Test Example 5: herbicidal effect by foliage application, plastic box (Table 20, symbol K); type: in vivo, Italian ryegrass (Lolium multiflorum); settings: foliage application, 320 g/ha, evaluated three weeks after application
How it was run: as §3

windgrass [21] = assay: Test Example 5: herbicidal effect by foliage application, plastic box (Table 20, symbol L); type: in vivo, windgrass (Apera spica-venti); settings: foliage application, 320 g/ha, evaluated three weeks after application
How it was run: as §3

velvetleaf [22] = assay: Test Example 5: herbicidal effect by foliage application, plastic box (Table 20, symbol M); type: in vivo, velvetleaf (Abutilon theophrasti); settings: foliage application, 320 g/ha, evaluated three weeks after application
How it was run: as §3

redroot pigweed [23] = assay: Test Example 5: herbicidal effect by foliage application, plastic box (Table 20, symbol N); type: in vivo, redroot pigweed (Amaranthus retroflexus); settings: foliage application, 320 g/ha, evaluated three weeks after application
How it was run: as §3

lambsquarters [24] = assay: Test Example 5: herbicidal effect by foliage application, plastic box (Table 20, symbol O); type: in vivo, lambsquarters (Chenopodium album); settings: foliage application, 320 g/ha, evaluated three weeks after application
How it was run: as §3

chickweed [25] = assay: Test Example 5: herbicidal effect by foliage application, plastic box (Table 20, symbol P); type: in vivo, common chickweed (Stellaria media); settings: foliage application, 320 g/ha, evaluated three weeks after application
How it was run: as §3

false cleavers [26] = assay: Test Example 5: herbicidal effect by foliage application, plastic box (Table 20, symbol Q); type: in vivo, false cleavers (Galium spurium); settings: foliage application, 320 g/ha, evaluated three weeks after application
How it was run: as §3

persian speedwell [27] = assay: Test Example 5: herbicidal effect by foliage application, plastic box (Table 20, symbol R); type: in vivo, Persian speedwell (Veronica persica); settings: foliage application, 320 g/ha, evaluated three weeks after application
How it was run: as §3

Structure (SMILES) | herbicidal effect on H: barnyard grass (barnyard grass [1]) | herbicidal effect on D: Chinese sprangletop (Chinese sprangletop) | herbicidal effect on E: rice flat sedge (rice flat sedge) | F: southern crabgrass, herbicidal effect rating (southern crabgrass [2]) | G: green foxtail, herbicidal effect rating (green foxtail [3]) | H: barnyard grass, herbicidal effect rating (barnyard grass [4]) | I: wild oat, herbicidal effect rating (wild oat [5]) | J: blackgrass, herbicidal effect rating (blackgrass [6]) | K: Italian ryegrass, herbicidal effect rating (Italian ryegrass [7]) | L: windgrass, herbicidal effect rating (windgrass [8]) | M: velvetleaf, herbicidal effect rating (velvetleaf [9]) | N: redroot pigweed, herbicidal effect rating (redroot pigweed [10]) | O: lambsquarters, herbicidal effect rating (lambsquarters [11]) | P: chickweed, herbicidal effect rating (chickweed [12]) | Q: false cleavers, herbicidal effect rating (false cleavers [13]) | R: persian speedwell, herbicidal effect rating (persian speedwell [14]) | herbicidal effect on F: southern crabgrass (southern crabgrass [15]) | herbicidal effect on G: green foxtail (green foxtail [16]) | herbicidal effect on H: barnyard grass (barnyard grass [17]) | herbicidal effect on I: wild oat (wild oat [18]) | also measured
CCOc1cc(F)ccc1-c1sc2ccc(Cl)cc2c1-c1c(O)c(C)nn(C)c1=O [2-115] | 5 (Herbicidal rate of 90% or more (almost completely withered)) | 1 (Herbicidal rate of 5% or more and less than 20%) | 3 (Herbicidal rate of 40% or more and less than 70%) | 3 (Herbicidal rate of 40% or more and less than 70%) | 2 (Herbicidal rate of 20% or more and less than 40%) | 3 (Herbicidal rate of 40% or more and less than 70%) | 0 (Herbicidal rate of 5% or less (almost no effect)) | 4 (Herbicidal rate of 70% or more and less than 90%) | 0 (Herbicidal rate of 5% or less (almost no effect)) | 0 (Herbicidal rate of 5% or less (almost no effect)) | 1 (Herbicidal rate of 5% or more and less than 20%) | 5 (Herbicidal rate of 90% or more (almost completely withered)) | 3 (Herbicidal rate of 40% or more and less than 70%) | 3 (Herbicidal rate of 40% or more and less than 70%) | 4 (Herbicidal rate of 70% or more and less than 90%) | 4 (Herbicidal rate of 70% or more and less than 90%) | 4 (Herbicidal rate of 70% or more and less than 90%) | 3 (Herbicidal rate of 40% or more and less than 70%) | 5 (Herbicidal rate of 90% or more (almost completely withered)) | 1 (Herbicidal rate of 5% or more and less than 20%) | herbicidal effect on J: blackgrass (blackgrass [19]): 3 (Herbicidal rate of 40% or more and less than 70%); herbicidal effect on K: Italian ryegrass (Italian ryegrass [20]): 0 (Herbicidal rate of 5% or less (almost no effect)); herbicidal effect on L: windgrass (windgrass [21]): 3 (Herbicidal rate of 40% or more and less than 70%); herbicidal effect on M: velvetleaf (velvetleaf [22]): 5 (Herbicidal rate of 90% or more (almost completely withered)); herbicidal effect on N: redroot pigweed (redroot pigweed [23]): 5 (Herbicidal rate of 90% or more (almost completely withered)); herbicidal effect on O: lambsquarters (lambsquarters [24]): 3 (Herbicidal rate of 40% or more and less than 70%); herbicidal effect on P: chickweed (chickweed [25]): 5 (Herbicidal rate of 90% or more (almost completely withered)); herbicidal effect on Q: false cleavers (false cleavers [26]): 5 (Herbicidal rate of 90% or more (almost completely withered)); herbicidal effect on R: persian speedwell (persian speedwell [27]): 5 (Herbicidal rate of 90% or more (almost completely withered))
Cc1nn(C)c(=O)c(-c2c(-c3ccc4c(c3)OCCO4)sc3ccc(Cl)cc23)c1O [2-127] | 3 (Herbicidal rate of 40% or more and less than 70%) | 0 (Herbicidal rate of 5% or less (almost no effect)) | 5 (Herbicidal rate of 90% or more (almost completely withered)) | 0 (Herbicidal rate of 5% or less (almost no effect)) | 0 (Herbicidal rate of 5% or less (almost no effect)) | 0 (Herbicidal rate of 5% or less (almost no effect)) | 0 (Herbicidal rate of 5% or less (almost no effect)) | 0 (Herbicidal rate of 5% or less (almost no effect)) | 0 (Herbicidal rate of 5% or less (almost no effect)) | 0 (Herbicidal rate of 5% or less (almost no effect)) | 4 (Herbicidal rate of 70% or more and less than 90%) | 0 (Herbicidal rate of 5% or less (almost no effect)) | 4 (Herbicidal rate of 70% or more and less than 90%) | 3 (Herbicidal rate of 40% or more and less than 70%) | 0 (Herbicidal rate of 5% or less (almost no effect)) | 5 (Herbicidal rate of 90% or more (almost completely withered)) | 0 (Herbicidal rate of 5% or less (almost no effect)) | 0 (Herbicidal rate of 5% or less (almost no effect)) | 1 (Herbicidal rate of 5% or more and less than 20%) | 0 (Herbicidal rate of 5% or less (almost no effect)) | herbicidal effect on J: blackgrass (blackgrass [19]): 0 (Herbicidal rate of 5% or less (almost no effect)); herbicidal effect on K: Italian ryegrass (Italian ryegrass [20]): 0 (Herbicidal rate of 5% or less (almost no effect)); herbicidal effect on L: windgrass (windgrass [21]): 0 (Herbicidal rate of 5% or less (almost no effect)); herbicidal effect on M: velvetleaf (velvetleaf [22]): 4 (Herbicidal rate of 70% or more and less than 90%); herbicidal effect on N: redroot pigweed (redroot pigweed [23]): 3 (Herbicidal rate of 40% or more and less than 70%); herbicidal effect on O: lambsquarters (lambsquarters [24]): 3 (Herbicidal rate of 40% or more and less than 70%); herbicidal effect on P: chickweed (chickweed [25]): 5 (Herbicidal rate of 90% or more (almost completely withered)); herbicidal effect on Q: false cleavers (false cleavers [26]): 0 (Herbicidal rate of 5% or less (almost no effect)); herbicidal effect on R: persian speedwell (persian speedwell [27]): 5 (Herbicidal rate of 90% or more (almost completely withered))
